Laboratory results: US7173129B2, “Sulfonamide-substituted chalcone derivatives and their use to treat diseases” (Athero Genics, Inc., priority 2003, dated 2007)

Legend:
VCAM-1 = assay: In Vitro VCAM-1 Assay (TNF-α stimulated endothelial cells, cell-surface ELISA); type: cell-based; conditions: primary human aortic (HAEC) or pulmonary (HPAEC) endothelial cells, TNF-α 1 ng/ml, approximately 16 hours, ELISA OD 450 nm
Method: Cell Culture and compound dosing: Cultured primary human aortic (HAEC) or pulmonary (HPAEC) endothelial cells were obtained from Clonetics, Inc., and were used below passage 9. Cells were seeded in 96 well plates such that they would reach 90–95% confluency by the following day. On the following day the cells were stimulated with TNF-α (1 ng/ml) in the presence or absence of compounds dissolved in DMSO such that the final concentration of DMSO is 0.25% or less. To establish a dose curve for each compound, four concentrations in 2- to 5-fold increments were used. Cells were exposed to TNF-α and compounds for approximately 16 hours. The next day the cells were examined under microscope to score for visual signs of toxicity or cell stress.
Following 16 hr exposure to TNF-α and compound the media was discarded and the cells were washed once with Hanks Balanced Salt Solution (HBSS)/Phosphate buffered saline (PBS) (1:1). Primary antibodies against VCAM-1 (0.25 μg/ml in HBSS/PBS+5% FBS) were added and incubated for 30–60 minutes at 37° C. Cells were washed with HBSS/PBS three times, and secondary antibody Horse Radish Peroxidase (HRP)-conjugated goat anti-mouse IgG (1:500 in HBSS/PBS+5% FBS) were added and incubated for 30 minutes at 37° C. Cells were washed with HBSS/PBS four time and TMB substrate were added and incubated at room temperature in the dark until there was adequate development of blue color. The length of time of incubation was typically 5–15 minutes. 2N sulfuric acid was added to stop the color development and the data was collected by reading the absorbance on a BioRad ELISA plate reader at OD 450 nm. The results are expressed as IC50 values (the concentration (micromolar) of compound required to inhibit 50% of the maximal response of the control sample stimulated by TNF-α only).

[1] = Homo sapiens, Endothelial cell, 16 h

Row | Structure (SMILES) | IC50 (VCAM-1; [1]) | melting point | IC50 (VCAM-1; sodium salt) | IC50 (VCAM-1; Endothelial cell)
1 | COc1cc(OC)c(-c2cccs2)cc1/C=C/C(=O)c1ccc(S(=O)(=O)Nc2ccc(Cl)cn2)cc1 [Example 10, N-(5—Chloropyridin-2-yl)-4-[3E-(2,4-dimethoxy-5-thien-2-ylphenyl)acryloyl]benzenesulfonamide] | < 10 µM | 228 to 229 °C |  | 
2 | COc1cc(OC)c(-c2cc3ccccc3n2C)cc1/C=C/C(=O)c1ccc(S(=O)(=O)NO)cc1 [Example 34, 4-{3E-[2,4-Dimethoxy-5-(1-methyl-1H-indol-2-yl)phenyl]acryloyl}-N-hydroxybenzenesulfonamide] | > 10 µM | > 260 °C |  | 
3 | COc1cc(OCC(CO)CO)c(/C=C/C(=O)c2ccc(S(=O)(=O)Nc3cc(C)on3)cc2)cc1-c1cccs1 [Example 13, 4-{3E-[2-(3-Hydroxy-2-hydroxymethylpropoxy)-4-methoxy-5-thien-2-ylphenyl]acryloyl}-N-(5-methylisoxazol-3-yl)benzenesulfonamide] | > 10 µM | 165 to 166 °C |  | 
4 | COc1cc(OC)c(-c2cccs2)cc1/C=C/C(=O)c1ccc(S(=O)(=O)Nc2ccc(C(F)(F)F)cn2)cc1 [Example 12, 4-[3E-(2,4-Dimethoxy-5-thien-2-ylphenyl)acryloyl]-N-(5-trifluoromethylpyridin-2-yl)benzenesulfonamide] | < 10 µM | 228 to 229 °C |  | 
5 | COc1cc(OC)c(N2CCCC2)cc1/C=C/C(=O)c1ccc(S(=O)(=O)Nc2cc(C)on2)cc1 [Example 38, 4-[3E-(2,4-Dimethoxy-5-pyrrolidin-1-yl-phenyl)acryloyl]-N-(5-methyl-isoxazol-3-yl)benzenesulfonamide] | < 5 µM | 164 to 165 °C |  | 
6 | COc1cc(OC)c(-c2cc3ccccc3n2C)cc1/C=C/C(=O)c1ccc(S(=O)(=O)NO[Si](C)(C)C(C)(C)C)cc1 [Example 33, 4-{3E-[2,4-Dimethoxy-5-(1-methyl-1H-indol-2-yl)phenyl]acryloyl}-N-(tert-butyldimethylsiloxy)benzenesulfonamide] |  | 129 to 131 °C |  | > 10 µM
7 | CNS(=O)(=O)c1ccc(C(=O)/C=C/c2cc(-c3cc4ccccc4n3C)c(OC)cc2OC)cc1 [Example 29, 4-{3E-[2,4-Dimethoxy-5-(1-methyl-1H-indol-2-yl)phenyl]acryloyl}-N-methyl-benzenesulfonamide] | < 5 µM | 129 to 131 °C |  | 
8 | COc1cc(OC)c(-c2cccs2)cc1/C=C/C(=O)c1ccc(S(=O)(=O)NCC(F)(F)F)cc1 [Example 24, 4-[3E-(2,4-Dimethoxy-5-thien-2-ylphenyl)acryloyl]-N-(2,2,2-trifluoroethyl)benzenesulfonamide] | < 5 µM | 167 to 168 °C |  | 
9 | COc1cc(OC)c(-c2cccs2)cc1/C=C/C(=O)c1ccc(S(=O)(=O)NN2CCCCC2)cc1 [Example 22, 4-[3E-(2,4-Dimethoxy-5-thien-2-ylphenyl)acryloyl]-N-piperidin-1-ylbenzenesulfonamide] | > 10 µM | 174 to 176 °C |  | 
10 | COc1cc(OCCCO)c(/C=C/C(=O)c2ccc(S(=O)(=O)Nc3cc(C)on3)cc2)cc1-c1cccs1 [Example 39, 4-{3E-[2-(3-Hydroxy-propoxy)-4-methoxy-5-thien-2-ylphenyl]acryloyl}-N-(5-methylisoxazol-3-yl)benzenesulfonamide] | < 5 µM | 178 to 182 °C |  | 
11 | COc1cc(OC)c(-c2cccs2)cc1/C=C/C(=O)c1ccc(S(=O)(=O)NCCCn2ccnc2)cc1 [Example 23, 4-[3E-(2,4-Dimethoxy-5-thien-2-ylphenyl)acryloyl]-N-(3-imidazol-1-ylpropyl)benzenesulfonamide] | < 5 µM | 160 to 162 °C |  | 
12 | COc1cc(OC)c(-c2cccs2)cc1/C=C/C(=O)c1ccc(S(=O)(=O)NCC(=O)O)cc1 [Example 26, {4-[3E-(2,4-Dimethoxy-5-thien-2-ylphenyl)acryloyl]benzenesulfonylamino}acetic acid] | > 10 µM | 100 to 101 °C |  | 
13 | COc1cc(OC)c(-c2cccs2)cc1/C=C/C(=O)c1ccc(S(=O)(=O)Nc2ncccn2)cc1 [Example 3, 4-[3E-(2,4-Dimethoxy-5-thien-2-ylphenyl)acryloyl]-N-pyrimidin-2-ylbenzenesulfonamide] | < 5 µM | 215 °C (dec.) |  | 
14 | COc1cc(OC)c(-c2cc3ccccc3[nH]2)cc1/C=C/C(=O)c1ccc(S(=O)(=O)N(C)C)cc1 [Example 32, 4-{3E-[5-(1H-Indol-2-yl)-2,4-dimethoxyphenyl]acryloyl}-N,N-dimethylbenzenesulfonamide] | < 5 µM | 158 to 162 °C |  | 
15 | COc1cc(OC)c(-c2cccs2)cc1/C=C/C(=O)c1ccc(S(=O)(=O)Nc2ccc(F)cn2)cc1 [Example 11, 4-[3E-(2,4-Dimethoxy-5-thien-2-ylphenyl)acryloyl]-N-(5-fluoropyridin-2-yl)benzenesulfonamide] | < 5 µM | 194 to 195 °C |  | 
16 | COc1cc(OC)c(-c2cccs2)cc1/C=C/C(=O)c1ccc(S(=O)(=O)Nc2ccccn2)cc1 [Example 5, 4-[3E-(2,4-Dimethoxy-5-thien-2-ylphenyl)acryloyl]-N-pyridin-2-ylbenzenesulfonamide] | < 5 µM | 141 to 143 °C |  | 
17 | COc1cc(OC)c(-c2cccs2)cc1/C=C/C(=O)c1ccc(S(=O)(=O)NC(C)(C)C(=O)O)cc1 [Example 27, 2-{4-[3E-(2,4-Dimethoxy-5-thien-2-yl-phenyl)acryloyl]benzenesulfonylamino}-2-methylpropionic acid] | < 10 µM | 205 °C (dec.) |  | 
18 | COc1cc(OCCN2CCOCC2)c(/C=C/C(=O)c2ccc(S(=O)(=O)Nc3cc(C)on3)cc2)cc1-c1cccs1.Cl [Example 14, 4-{3E-[4-Methoxy-2-(2-morpholin-4-yl-ethoxy)-5-thien-2-ylphenyl]acryloyl}-N-(5-methyl-isoxazol-3-yl)benzenesulfonamide hydrochloride] | < 5 µM | > 260 °C |  | 

More lines, main results first:

Row | IC50 (VCAM-1; [1]) | melting point | IC50 (VCAM-1; sodium salt) | Structure (SMILES) | IC50 (VCAM-1; Endothelial cell)
19 | > 10 µM | 197 to 200 °C |  | COc1cc(OC)c(-c2cc3ccccc3[nH]2)cc1/C=C/C(=O)c1ccc(S(=O)(=O)NCCCn2ccnc2)cc1 [Example 50, N-(3-Imidazol-1-yl-propyl)-4-{3E-[5-(1H-indol-2-yl)-2,4-dimethoxy-phenyl]acryloyl}benzenesulfonamide] | 
20 | > 5 µM | 140 to 143 °C |  | COc1cc(OC)c(N2CCCC2)cc1/C=C/C(=O)c1ccc(S(=O)(=O)NCCCn2ccnc2)cc1 [Example 54, 4-[3E-(2,4-Dimethoxy-5-pyrrolidin-1-ylphenyl)acryloyl]-N-(3-imidazol-1-ylpropyl)benzenesulfonamide] | 
21 |  | 240 to 250 °C | < 5 µM | COc1cc(OC)c(-c2cc3ccccc3[nH]2)cc1/C=C/C(=O)c1ccc(S(=O)(=O)[N-]C(C)=O)cc1.[Na+] [Example 43, N-Acetyl-4-{3E-[5-(1H-indol-2-yl)-2,4-dimethoxyphenyl]acryloyl}benzenesulfonamide sodium salt] | 
22 | < 5 µM | 223 to 225 °C |  | CCC(=O)NS(=O)(=O)c1ccc(C(=O)/C=C/c2cc(-c3cc4ccccc4[nH]3)c(OC)cc2OC)cc1 [Example 45, 4-{3E-[5-(1H-Indol-2-yl)-2,4-dimethoxyphenyl]acryloyl}-N-propionyl-benzenesulfonamide] | 
23 | > 10 µM | 189 to 190 °C |  | COc1cc(OC)c(-c2cc3ccccc3[nH]2)cc1/C=C/C(=O)c1ccc(S(=O)(=O)NCC(=O)O)cc1 [Example 51, (4-{3E-[5-(1H-Indol-2-yl)-2,4-dimethoxyphenyl]acryloyl}benzenesulfonylamino)acetic acid] | 
24 | < 5 µM | 113 to 115 °C |  | COc1cc(OC)c(-c2cccn2C)cc1/C=C/C(=O)c1ccc(S(=O)(=O)Nc2cc(C)on2)cc1 [Example 44, 4-{3E-[2,4-Dimethoxy-5-(1-methyl-1H-pyrrol-2-yl)phenyl]acryloyl}-N-(5-methyl-isoxazol-3-yl)benzenesulfonamide] | 
25 | < 5 µM | 206 to 208 °C |  | COc1cc(OC)c(-c2cc3ccccc3[nH]2)cc1/C=C/C(=O)c1ccc(S(=O)(=O)Nc2ccccn2)cc1 [Example 57, 4-{3E-[5-(1H-Indol-2-yl)-2,4-dimethoxyphenyl]acryloyl}-N-pyridin-2-ylbenzenesulfonamide] | 
26 | < 5 µM | 112 to 116 °C |  | COc1cc(OC)c(N2CCCC2)cc1/C=C/C(=O)c1ccc(S(=O)(=O)NCc2ccccn2)cc1 [Example 53, 4-[3E-(2,4-Dimethoxy-5-pyrrolidin-1-ylphenyl)acryloyl]-N-pyridin-2-ylmethylbenzenesulfonamide] | 
